Measurements from patent US6534523B1, “Hepatitis C inhibitor tri-peptides” (Boehringer Ingelheim (Canada) Ltd., priority 1998, dated 2003).

System: NS3 protease in Huh-7 cells co-transfected with NS3-NS4A-NS4B-NS5A-tTA and SEAP constructs
Assay: NS3 protease surrogate cell-based assay (Example 39), SEAP reporter
Conditions: Homo sapiens, SEAP activity, 24-h incubation, read-out: EC50 as determined by the assay of Example 39
Description: NS3 Protease Cell-based Assay
This assay was done with Huh-7 cells, a human cell line derived from a hepatoma, co-transfected with 2 DNA constructs:
one expressing a polyprotein comprising the HCV non-structural proteins fused to tTA in the following order: NS3-NS4A-NS4B-NS5A-tTA (called NS3);
the other expressing the reporter protein, secreted alkaline phosphatase, under the control of tTA (called SEAP).
The polyprotein must be cleaved by the NS3 protease for the mature proteins to be released. Upon release of the mature proteins, it is believed that the viral proteins will form a complex at the membrane of the endoplasmic reticulum while tTA will migrate to the nucleus and transactivate the SEAP gene. Therefore, reduction of NS3 proteolytic activity should lead to reduction of mature tTA levels and concomitant decrease in SEAP activity.
To control for other effects of the compounds, a parallel transfection was done where a construct expressing tTA alone (called tTA) was co-transfected with the SEAP construct such that SEAP activity is independent of NS3 proteolytic activity. […] After a 24-h incubation period, an aliquot of the medium was drawn and the SEAP activity in this aliquot was measured with the Phospha-Light kit (Tropix). […]

C=C[C@@H]1C[C@]1(NC(=O)[C@@H]1C[C@@H](Oc2cc(-c3ccccc3)nc3cc(OC)ccc23)CN1C(=O)[C@@H](NC(=O)OC(C)(C)C)C(C)C)C(=O)O [compound 601]
EC50: 8.2 µM
